Assay results: PMC7253176, “Characterization of the kinetic cycle of an ABC transporter by single-molecule and cryo-EM analyses” (eLife, 2020)

Experiments:
[1] = biological target: T1, bovine multidrug resistance protein 1 (bMRP1) (Bos taurus, UniProt Q8HXQ5, DEL868-879); test: smFRET dose response of IF1 state occupancy (purified protein); also stimulates ATPase activity; format: binding
T1 construct: gene ABCC1; purified WT bMRP1 with S6 peptide replacing residues 868–879 and A1 peptide after V1530, Cy3/LD655-labeled

[2] = biological target: T2, bovine multidrug resistance protein 1 (bMRP1) (Bos taurus, UniProt Q8HXQ5); test: biochemical
T2 construct: gene ABCC1
T2 sequence (Q8HXQ5 whole entry): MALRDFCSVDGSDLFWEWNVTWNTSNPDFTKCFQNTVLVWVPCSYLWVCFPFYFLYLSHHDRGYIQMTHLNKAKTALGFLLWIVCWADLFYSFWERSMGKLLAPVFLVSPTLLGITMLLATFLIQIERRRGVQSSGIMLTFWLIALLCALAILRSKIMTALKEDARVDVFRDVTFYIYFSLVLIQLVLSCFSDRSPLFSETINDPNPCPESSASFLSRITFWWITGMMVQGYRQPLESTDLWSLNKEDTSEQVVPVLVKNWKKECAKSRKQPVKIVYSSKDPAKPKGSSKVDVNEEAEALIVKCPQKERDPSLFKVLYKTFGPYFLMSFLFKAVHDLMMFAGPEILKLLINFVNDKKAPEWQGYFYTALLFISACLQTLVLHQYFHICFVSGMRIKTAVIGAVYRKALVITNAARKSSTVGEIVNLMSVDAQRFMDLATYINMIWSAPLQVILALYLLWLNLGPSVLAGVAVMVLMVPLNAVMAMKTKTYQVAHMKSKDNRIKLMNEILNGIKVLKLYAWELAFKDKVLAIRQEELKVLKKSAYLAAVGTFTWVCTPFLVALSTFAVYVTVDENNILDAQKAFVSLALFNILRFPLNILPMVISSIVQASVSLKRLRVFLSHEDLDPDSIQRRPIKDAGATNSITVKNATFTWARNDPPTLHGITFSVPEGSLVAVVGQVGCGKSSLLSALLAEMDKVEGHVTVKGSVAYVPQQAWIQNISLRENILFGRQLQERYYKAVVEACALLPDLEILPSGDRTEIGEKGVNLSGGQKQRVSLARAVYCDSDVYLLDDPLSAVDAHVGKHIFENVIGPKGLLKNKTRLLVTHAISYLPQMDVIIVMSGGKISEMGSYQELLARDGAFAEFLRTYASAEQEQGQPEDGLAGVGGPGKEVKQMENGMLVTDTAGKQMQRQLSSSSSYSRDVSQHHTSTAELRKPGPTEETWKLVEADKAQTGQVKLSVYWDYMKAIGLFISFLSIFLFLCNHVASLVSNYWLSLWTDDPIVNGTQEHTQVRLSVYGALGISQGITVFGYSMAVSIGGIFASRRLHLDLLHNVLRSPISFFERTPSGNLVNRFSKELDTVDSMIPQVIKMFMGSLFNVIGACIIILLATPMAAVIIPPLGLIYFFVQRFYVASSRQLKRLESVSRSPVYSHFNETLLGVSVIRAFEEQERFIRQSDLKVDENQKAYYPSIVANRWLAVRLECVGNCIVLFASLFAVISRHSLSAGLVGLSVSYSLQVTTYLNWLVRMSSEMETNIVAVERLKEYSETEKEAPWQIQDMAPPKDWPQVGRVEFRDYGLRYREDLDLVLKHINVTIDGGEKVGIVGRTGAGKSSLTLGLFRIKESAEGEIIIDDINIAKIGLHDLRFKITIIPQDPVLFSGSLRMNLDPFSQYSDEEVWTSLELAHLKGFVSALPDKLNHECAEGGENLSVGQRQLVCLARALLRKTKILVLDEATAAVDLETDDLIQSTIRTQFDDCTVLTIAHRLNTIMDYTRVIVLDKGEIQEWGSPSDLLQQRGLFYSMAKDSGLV

T1 sequence (Q8HXQ5 1-867, stated change not applied): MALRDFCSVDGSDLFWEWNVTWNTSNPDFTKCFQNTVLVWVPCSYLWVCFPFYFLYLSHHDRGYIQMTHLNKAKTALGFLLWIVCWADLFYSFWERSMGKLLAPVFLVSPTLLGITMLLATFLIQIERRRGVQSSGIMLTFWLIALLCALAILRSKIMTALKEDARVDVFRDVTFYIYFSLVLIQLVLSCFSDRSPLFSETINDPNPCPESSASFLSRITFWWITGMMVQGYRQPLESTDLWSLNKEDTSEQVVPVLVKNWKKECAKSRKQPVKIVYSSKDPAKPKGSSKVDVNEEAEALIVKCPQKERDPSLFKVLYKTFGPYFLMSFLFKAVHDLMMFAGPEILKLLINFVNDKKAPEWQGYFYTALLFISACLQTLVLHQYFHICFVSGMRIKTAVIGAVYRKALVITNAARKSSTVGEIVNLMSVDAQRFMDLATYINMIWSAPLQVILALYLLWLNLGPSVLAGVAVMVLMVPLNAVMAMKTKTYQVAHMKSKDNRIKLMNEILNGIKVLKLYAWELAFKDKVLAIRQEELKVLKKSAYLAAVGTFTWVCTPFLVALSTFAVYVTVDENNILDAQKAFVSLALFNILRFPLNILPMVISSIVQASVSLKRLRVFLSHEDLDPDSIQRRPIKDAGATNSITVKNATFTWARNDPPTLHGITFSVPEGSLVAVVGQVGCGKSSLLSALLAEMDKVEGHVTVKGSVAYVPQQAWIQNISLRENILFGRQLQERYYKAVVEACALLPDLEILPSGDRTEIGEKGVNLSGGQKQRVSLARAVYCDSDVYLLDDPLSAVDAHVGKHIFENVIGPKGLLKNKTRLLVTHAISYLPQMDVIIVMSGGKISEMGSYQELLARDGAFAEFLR
T1 sequence (Q8HXQ5 880-1530, stated change not applied): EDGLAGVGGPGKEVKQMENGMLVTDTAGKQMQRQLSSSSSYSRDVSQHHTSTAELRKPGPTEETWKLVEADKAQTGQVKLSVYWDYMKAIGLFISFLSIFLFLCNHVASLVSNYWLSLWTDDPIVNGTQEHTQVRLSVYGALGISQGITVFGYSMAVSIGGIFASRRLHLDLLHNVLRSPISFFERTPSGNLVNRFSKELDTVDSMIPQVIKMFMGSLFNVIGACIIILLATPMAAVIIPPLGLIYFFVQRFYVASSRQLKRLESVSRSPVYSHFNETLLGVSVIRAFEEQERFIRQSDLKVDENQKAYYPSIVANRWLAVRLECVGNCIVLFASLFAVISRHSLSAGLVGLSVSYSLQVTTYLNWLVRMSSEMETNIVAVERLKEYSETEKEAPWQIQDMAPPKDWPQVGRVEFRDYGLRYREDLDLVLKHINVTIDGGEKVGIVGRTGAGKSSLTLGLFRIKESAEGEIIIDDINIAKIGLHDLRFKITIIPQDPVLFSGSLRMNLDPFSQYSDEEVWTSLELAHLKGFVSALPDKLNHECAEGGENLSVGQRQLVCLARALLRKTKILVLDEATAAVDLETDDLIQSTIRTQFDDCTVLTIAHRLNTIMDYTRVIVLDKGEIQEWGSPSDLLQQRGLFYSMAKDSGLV

| SMILES | EC50 [1] [µM] | EC50 [2] [µM] |
| --- | --- | --- |
| CCCCC/C=C\C\C=C/C=C/C=C/[C@@H](SC[C@H](NC(=O)CC[C@H](N)C(=O)O)C(=O)NCC(=O)O)[C@@H](O)CCCC(=O)O [Leukotriene C4] | 0.32 ± 0.17 | – |
| Nc1ncnc2c1ncn2[C@@H]1O[C@H](COP(=O)(O)OP(=O)(O)OP(=O)(O)O)[C@@H](O)[C@H]1O [ATP] | – | 50 ± 20 |
